This test concerns Asbestos-Exposed Mice. Description: Asbestos-exposed mice: morphometric analysis of first alveolar duct bifurcations. In kind it is in vivo. As to conditions: asbestos-exposed C57BL/6 mice, 30 days following exposure. As for the experimental part: Asbestos Exposure: Eight week old C57BL/6 mice are exposed to 15 mg/m^3 of chrysotile asbestos in inhalation chambers for a period of 5 hours, for 3 consecutive days, as described previously in detail in our earlier publications (Lasky et al. Am. J. Respir. Crit. Care Med. (1998) 157:1652-7). This asbestos exposure induces fibroblast proliferation and a morphometrically characterized lesion at the alveolar duct bifurcations (Brody et al., Am Rev Respir Dis. (1981) 123:670-9). Sham-exposed (ambient air) animals are used as controls. The groups include: sham-exposed with vehicle; asbestos-exposed with vehicle; and asbestos exposed with COMPOUND I (imatinib mesylate). Five mice from each of these […] are sacrificed 30 days following exposure and used for determining the dimensions of the alveolar duct bifurcations. […]
Morphometric Analysis: H & E stained sections from exposed and control animals from the 30 day time point are masked. Bifurcation area is measured using an Olympus microscope with a video camera interfacing with a PC utilizing V150 imaging software (Fermin et al., J Anat. (1995) 186:469-81). The total area and perimeter of each of five first alveolar duct bifurcations is measured as previously described (Perdue et al., J. Histochem. Cytochem. (1994) 42:1061-70). […]

Where a name gives a salt, the structure may show the parent alone.

On to `Cc1ccc(NC(=O)c2ccc(CN3CCN(C)CC3)cc2)cc1Nc1nccc(-c2cccnc2)n1` [SALT I, 4[-(4-methyl-1-piperazin-1-ylmethyl)-N-[4-methyl-3-[[4-(3-pyridinyl)-2-pyrimidinyl]amino]phenyl]benzamide methanesulfonate], for which the “First alveolar duct area” value (100 mg COMPOUND I free base/kg i.p. once per day, from the day preceding exposure and for 14 days thereafter, group mean) came out at 1875 square micrometers. In addition, the “reduction of the size of the lesion (fibrotic scar at first alveolar duct bifurcations)” value (100 mg free base/kg i.p. once per day, P=0.02) is 43%.

(Values after patent publication US20070082914A1, “4-(4-Methylpiperazin-1-ylmethyl)-n-[4-methyl-3-(4-pyridin-3-yl)pyrimidin-2-ylamino)phenyl]-benzamide for treating pulmonary fibrosis” (priority 2002, published 2007).)
